Experiment: SPECT and PET imaging biodistribution in mice
Type: in vivo, BALB/c mice
Method: For in vivo imaging and stability studies, ^117Sb was produced in 0.5 M NH4OAc at the University of Wisconsin-Madison and experiments were conducted the same day. 2 mL of ^117Sb in 0.5 M NH4OAc pH 4 solution was combined with 220 μL of 10 mM TRENCAM in 20% DMSO solution and heated to 80° C. for 1 h. Quantitative radiolabeling was confirmed via TLC. A 1:5 dilution of the radiolabeling solution with DI H2O was performed before passing it through a C8 Sep-Pak® cartridge (Waters, Milford, MA, USA), preconditioned with 5 mL EtOH and 5 mL H2O) to trap the [^117Sb]Sb-TRENCAM complex. The cartridge was rinsed with 1 mL H2O to remove NH4OAc buffer and unchelated ^117/119Sb, and then the [^117Sb]Sb-TRENCAM complex was eluted with EtOH and collected dropwise. […]
Two groups of healthy 3-month-old male BALB/c mice (n=3) ([…]) were injected with 150 μL ^117Sb solutions. […] In both cases, scanner calibration occurred by imaging vials of ^117Sb activity and correlating image signal strength to activity measured via High Purity Germanium (HPGe) gamma spectroscopy. […] Using co-registered CT images, manual volume-of-interest delineation of tissues allowed activity biodistribution measurement, as expressed as percent injected activity per gram of tissue (% IA/g), using either Inveon Research Workstation (Siemens) for PET VOI analysis or Imalytics 3.0 (MILabs) for SPECT VOI analysis. […]

Q: Which results are given for `[OH][Sb-]([OH])([OH])([OH])([OH])[OH]` [[^117Sb]Sb(OH)6^−]?
A: uptake in bone (PET images) (PET 150 min post injection): uptake; clearance route and organ uptake by PET and SPECT imaging (tail vein injection, imaged 20-240 min post injection): renal clearance with liver accumulation

— patent publication US20250082794A1, “ANTIMONY CHELATES FOR TARGETED AUGER THERAPY AND IMAGING DIAGNOSTICS” (Wisconsin Alumni Research Foundation, priority 2023, published 2025)
